Results published in patent publication US20170360013A1, “ANIMAL MODEL FOR DRY EYE AND METHODS OF USE OF SUCH ANIMALS” (REGENERON PHARMACEUTICALS, INC., priority 2014, published 2017).

How the values were obtained:
C57BL/6 mice [1] = assay: Flow cytometry of extraorbital lacrimal glands (CD45+ immune cell infiltration); type: in vivo, mouse; settings: after 4 weeks of treatment; relative to controls
Method: (§1) Dry eye model induction: 27 adult, male C57BL/6 mice were randomized to naïve (untreated), sham (receiving surgery equivalent to surgery for implantation of pump, but without actual implantation of pump and without scopolamine or BAC treatment), benzalkonium chloride (BAC), scopolamine (Scop) or BAC plus Scop groups.
(§2) Implantation of scopolamine pump. For Scop group, mice were subcutaneously implanted with an osmotic pump filled with Scop (2 mg/20 g body weight/day) lasting for 4 weeks. Mice were anesthetized with ketamine (120 mg/kg, IP) and xylazine (5 mg/kg, IP). Using aseptic microsurgical technique and an operating microscope, a mini-osmotic pump was placed beneath the back skin, then the skin was sutured, and erythromycin ophthalmic ointment was applied to the wound to prevent infection.
(§3) Benzalkonium chloride treatment. For BAC treatment, 1 μl of 0.1-0.2% BAC was topically administrated on the right eye ocular surface, twice daily, 2 days per week, for four weeks.
Quantification of corneal angiogenesis, lymphangiogenesis and lacrimal gland infiltration. On day 28 after induction of dry eye, under deep ketamine (120 mg/kg, IP) and xylazine (5 mg/kg, IP) anesthesia, eyeballs were collected in 4% paraformaldehyde (PFA) for corneal angiogenesis and lymphangiogenesis studies. […]
Flow cytometry. […] Data was analyzed by FlowJo (Tree Star, Ashland, Oreg.).

C57BL/6 mice [2] = assay: Tear production measurement (phenol red thread) in dry eye model induction; type: in vivo, mouse; settings: over four weeks of administration; Scop 2 mg/20 g body weight/day by s.c. osmotic pump; BAC 1 μl of 0.1-0.2% topical, twice daily, 2 days per week; relative to controls or BAC alone; p<0.001
Method: as §1, §2, §3
Tear production measurement and corneal fluorescein staining score. Tear production and corneal fluorescein staining were performed once per week, on day 7, 14, 21, and 28. […] Five minutes after application, corneal fluorescein staining was scored under a microscope using the National Eye Institute (NEI) scoring standards.

Molecule | percent of CD45+ cells in extraorbital lacrimal glands (C57BL/6 mice [1]) | tear production (C57BL/6 mice [2])
CN1[C@@H]2C[C@@H](OC(=O)[C@H](CO)c3ccccc3)C[C@H]1[C@@H]1O[C@@H]12 [Scop, scopolamine] | increased | significantly decreases
benzalkonium chloride [BAC] | increased | 
